Key:
[1] = solid-form stability of cinacalcet HCl polymorphs
From the text: The present invention describes an additional third form of the compound. […] The present invention is directed to a novel polymorph Form III.

[2] = target: cytochrome P450 2D6 (Homo sapiens, UniProt P10635); settings: cited from earlier work
[3] = test system: patients with parathyroid carcinoma; settings: cited from earlier work

cytochrome P450 2D6, sequence (P10635 whole entry): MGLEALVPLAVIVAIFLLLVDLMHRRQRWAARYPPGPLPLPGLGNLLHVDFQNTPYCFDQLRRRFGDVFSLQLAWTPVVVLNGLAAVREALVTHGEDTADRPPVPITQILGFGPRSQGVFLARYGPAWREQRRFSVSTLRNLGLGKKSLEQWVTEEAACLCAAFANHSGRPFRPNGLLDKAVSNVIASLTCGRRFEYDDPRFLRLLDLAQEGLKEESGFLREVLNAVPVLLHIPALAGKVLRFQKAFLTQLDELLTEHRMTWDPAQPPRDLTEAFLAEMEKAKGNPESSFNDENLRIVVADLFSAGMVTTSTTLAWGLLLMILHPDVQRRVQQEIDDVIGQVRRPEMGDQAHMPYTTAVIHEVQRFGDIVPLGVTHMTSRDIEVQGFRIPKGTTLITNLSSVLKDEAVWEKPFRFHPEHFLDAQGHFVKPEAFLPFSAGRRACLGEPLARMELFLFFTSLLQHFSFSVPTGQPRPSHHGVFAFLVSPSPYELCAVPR

C[C@@H](NCCCc1cccc(C(F)(F)F)c1)c1cccc2ccccc12.Cl [Form II]
stability of the crystalline form ([1]; room temperature): unstable at room temperature

C[C@@H](NCCCc1cccc(C(F)(F)F)c1)c1cccc2ccccc12.Cl [Sensipar®, N-[1-(R)-(−)-(1-naphthyl)ethyl]-3-[3-(trifluoromethyl)phenyl]-1-aminopropane hydrochloride]
metabolizing enzyme [2]: metabolized by cytochrome P450 2D6
effect on calcium levels [3]: reduce high levels of calcium

C[C@@H](NCCCc1cccc(C(F)(F)F)c1)c1cccc2ccccc12.Cl [Form III, N-[1-(R)-(−)-(1-naphthyl)ethyl]-3-[3-(trifluoromethyl)phenyl]-1-aminopropane hydrochloride]
thermodynamic stability of the crystalline form ([1]; solvent systems and crystallization methods, XRPD analysis): metastable form

Reference: US8415501B2, “Methods and compositions for making and using polymorphs of cinacalcet” (Amgen, Inc., priority 2006, dated 2013)
